# Assay results reported in the NIST ThermoML archive (doi:10.1016/j.jct.2006.06.008).
# Numbers after ± are expanded uncertainties.
# Test: xn = mol fraction of the nth substance listed
# Settings: 101 kPa, Liquid
smiles,measurement,setting,value
CCCCO [butan-1-ol] + C1CCCC1,mass density,"293.15 K, x2 = 0",809.5 ± 0.43 kg/m3
same,speed of sound,"293.15 K, x2 = 0",1257 ± 2 m/s
same,viscosity,"293.15 K, x2 = 0",2.941 ± 0.068 mPa·s
same,mass density,"298.15 K, x2 = 0",805.75 ± 0.43 kg/m3
same,speed of sound,"298.15 K, x2 = 0",1240 ± 2 m/s
same,viscosity,"298.15 K, x2 = 0",2.571 ± 0.06 mPa·s
same,mass density,"303.15 K, x2 = 0",801.8 ± 0.44 kg/m3
same,speed of sound,"303.15 K, x2 = 0",1224 ± 2 m/s
same,viscosity,"303.15 K, x2 = 0",2.255 ± 0.053 mPa·s
CCCCO [butan-1-ol] + C1CCCCC1,mass density,"293.15 K, x2 = 0",809.5 ± 0.43 kg/m3
same,speed of sound,"293.15 K, x2 = 0",1257 ± 2 m/s
same,viscosity,"293.15 K, x2 = 0",2.941 ± 0.068 mPa·s
same,mass density,"298.15 K, x2 = 0",805.75 ± 0.43 kg/m3
same,speed of sound,"298.15 K, x2 = 0",1240 ± 2 m/s
same,viscosity,"298.15 K, x2 = 0",2.571 ± 0.06 mPa·s
same,mass density,"303.15 K, x2 = 0",801.8 ± 0.44 kg/m3
same,speed of sound,"303.15 K, x2 = 0",1224 ± 2 m/s
same,viscosity,"303.15 K, x2 = 0",2.255 ± 0.053 mPa·s
C1CCCCC1 [cyclohexane] + CCCCO,mass density,"293.15 K, x1 = 0.0491",807.27 ± 0.43 kg/m3
same,speed of sound,"293.15 K, x1 = 0.0491",1254 ± 2 m/s
same,viscosity,"293.15 K, x1 = 0.0491",2.777 ± 0.064 mPa·s
same,mass density,"293.15 K, x1 = 0.0988",804.96 ± 0.44 kg/m3
same,speed of sound,"293.15 K, x1 = 0.0988",1252 ± 2 m/s
same,viscosity,"293.15 K, x1 = 0.0988",2.593 ± 0.06 mPa·s
same,mass density,"293.15 K, x1 = 0.2003",800.76 ± 0.44 kg/m3
same,speed of sound,"293.15 K, x1 = 0.2003",1249 ± 2 m/s
same,viscosity,"293.15 K, x1 = 0.2003",2.254 ± 0.053 mPa·s
same,mass density,"293.15 K, x1 = 0.3081",796.54 ± 0.45 kg/m3
same,speed of sound,"293.15 K, x1 = 0.3081",1246 ± 2 m/s
same,viscosity,"293.15 K, x1 = 0.3081",1.937 ± 0.046 mPa·s
same,mass density,"293.15 K, x1 = 0.4082",792.86 ± 0.45 kg/m3
same,speed of sound,"293.15 K, x1 = 0.4082",1245 ± 2 m/s
same,viscosity,"293.15 K, x1 = 0.4082",1.684 ± 0.04 mPa·s
same,mass density,"293.15 K, x1 = 0.5125",789.41 ± 0.46 kg/m3
same,speed of sound,"293.15 K, x1 = 0.5125",1245 ± 2 m/s
same,viscosity,"293.15 K, x1 = 0.5125",1.449 ± 0.035 mPa·s
same,mass density,"293.15 K, x1 = 0.6157",786.28 ± 0.47 kg/m3
same,speed of sound,"293.15 K, x1 = 0.6157",1247 ± 2 m/s
same,viscosity,"293.15 K, x1 = 0.6157",1.257 ± 0.031 mPa·s
same,mass density,"293.15 K, x1 = 0.7086",783.78 ± 0.47 kg/m3
same,speed of sound,"293.15 K, x1 = 0.7086",1250 ± 2 m/s
same,viscosity,"293.15 K, x1 = 0.7086",1.121 ± 0.028 mPa·s
same,mass density,"293.15 K, x1 = 0.8022",781.56 ± 0.47 kg/m3
same,speed of sound,"293.15 K, x1 = 0.8022",1255 ± 2 m/s
same,viscosity,"293.15 K, x1 = 0.8022",1.047 ± 0.026 mPa·s
same,mass density,"293.15 K, x1 = 0.9029",779.62 ± 0.48 kg/m3
same,speed of sound,"293.15 K, x1 = 0.9029",1263 ± 2 m/s
same,viscosity,"293.15 K, x1 = 0.9029",0.995 ± 0.025 mPa·s
same,mass density,"293.15 K, x1 = 0.9519",778.88 ± 0.48 kg/m3
same,speed of sound,"293.15 K, x1 = 0.9519",1269 ± 2 m/s
same,viscosity,"293.15 K, x1 = 0.9519",0.972 ± 0.024 mPa·s
same,mass density,"293.15 K, x1 = 1",778.62 ± 0.48 kg/m3
same,speed of sound,"293.15 K, x1 = 1",1279 ± 2 m/s
same,viscosity,"293.15 K, x1 = 1",0.968 ± 0.024 mPa·s
same,mass density,"298.15 K, x1 = 0.0491",803.41 ± 0.44 kg/m3
same,speed of sound,"298.15 K, x1 = 0.0491",1237 ± 2 m/s
same,viscosity,"298.15 K, x1 = 0.0491",2.437 ± 0.057 mPa·s
same,mass density,"298.15 K, x1 = 0.0988",801.04 ± 0.44 kg/m3
same,speed of sound,"298.15 K, x1 = 0.0988",1234 ± 2 m/s
same,viscosity,"298.15 K, x1 = 0.0988",2.278 ± 0.053 mPa·s
same,mass density,"298.15 K, x1 = 0.2003",796.72 ± 0.45 kg/m3
same,speed of sound,"298.15 K, x1 = 0.2003",1230 ± 2 m/s
same,viscosity,"298.15 K, x1 = 0.2003",1.984 ± 0.047 mPa·s
same,mass density,"298.15 K, x1 = 0.3081",792.37 ± 0.46 kg/m3
same,speed of sound,"298.15 K, x1 = 0.3081",1227 ± 2 m/s
same,viscosity,"298.15 K, x1 = 0.3081",1.712 ± 0.041 mPa·s
same,mass density,"298.15 K, x1 = 0.4082",788.57 ± 0.46 kg/m3
same,speed of sound,"298.15 K, x1 = 0.4082",1224 ± 2 m/s
same,viscosity,"298.15 K, x1 = 0.4082",1.492 ± 0.036 mPa·s
same,mass density,"298.15 K, x1 = 0.5125",785.01 ± 0.47 kg/m3
same,speed of sound,"298.15 K, x1 = 0.5125",1224 ± 2 m/s
same,viscosity,"298.15 K, x1 = 0.5125",1.293 ± 0.032 mPa·s
same,mass density,"298.15 K, x1 = 0.6157",781.77 ± 0.47 kg/m3
same,speed of sound,"298.15 K, x1 = 0.6157",1225 ± 2 m/s
same,viscosity,"298.15 K, x1 = 0.6157",1.13 ± 0.028 mPa·s
same,mass density,"298.15 K, x1 = 0.7086",779.19 ± 0.48 kg/m3
same,speed of sound,"298.15 K, x1 = 0.7086",1227 ± 2 m/s
same,viscosity,"298.15 K, x1 = 0.7086",1.014 ± 0.025 mPa·s
same,mass density,"298.15 K, x1 = 0.8022",776.91 ± 0.48 kg/m3
same,speed of sound,"298.15 K, x1 = 0.8022",1231 ± 2 m/s
same,viscosity,"298.15 K, x1 = 0.8022",0.955 ± 0.024 mPa·s
same,mass density,"298.15 K, x1 = 0.9029",774.9 ± 0.48 kg/m3
same,speed of sound,"298.15 K, x1 = 0.9029",1239 ± 2 m/s
same,viscosity,"298.15 K, x1 = 0.9029",0.904 ± 0.023 mPa·s
same,mass density,"298.15 K, x1 = 0.9519",774.15 ± 0.48 kg/m3
same,speed of sound,"298.15 K, x1 = 0.9519",1244 ± 2 m/s
same,viscosity,"298.15 K, x1 = 0.9519",0.889 ± 0.023 mPa·s
same,mass density,"298.15 K, x1 = 1",773.92 ± 0.48 kg/m3
same,speed of sound,"298.15 K, x1 = 1",1254 ± 2 m/s
same,viscosity,"298.15 K, x1 = 1",0.887 ± 0.022 mPa·s
same,mass density,"303.15 K, x1 = 0.0491",799.52 ± 0.44 kg/m3
same,speed of sound,"303.15 K, x1 = 0.0491",1220 ± 2 m/s
same,viscosity,"303.15 K, x1 = 0.0491",2.147 ± 0.051 mPa·s
same,mass density,"303.15 K, x1 = 0.0988",797.08 ± 0.45 kg/m3
same,speed of sound,"303.15 K, x1 = 0.0988",1217 ± 2 m/s
same,viscosity,"303.15 K, x1 = 0.0988",2.009 ± 0.047 mPa·s
same,mass density,"303.15 K, x1 = 0.2003",792.63 ± 0.45 kg/m3
same,speed of sound,"303.15 K, x1 = 0.2003",1211 ± 2 m/s
same,viscosity,"303.15 K, x1 = 0.2003",1.756 ± 0.042 mPa·s
same,mass density,"303.15 K, x1 = 0.3081",788.15 ± 0.46 kg/m3
same,speed of sound,"303.15 K, x1 = 0.3081",1207 ± 2 m/s
same,viscosity,"303.15 K, x1 = 0.3081",1.514 ± 0.036 mPa·s
same,mass density,"303.15 K, x1 = 0.4082",784.23 ± 0.47 kg/m3
same,speed of sound,"303.15 K, x1 = 0.4082",1204 ± 2 m/s
same,viscosity,"303.15 K, x1 = 0.4082",1.33 ± 0.032 mPa·s
same,mass density,"303.15 K, x1 = 0.5125",780.55 ± 0.47 kg/m3
same,speed of sound,"303.15 K, x1 = 0.5125",1202 ± 2 m/s
same,viscosity,"303.15 K, x1 = 0.5125",1.16 ± 0.029 mPa·s
same,mass density,"303.15 K, x1 = 0.6157",777.21 ± 0.48 kg/m3
same,speed of sound,"303.15 K, x1 = 0.6157",1202 ± 2 m/s
same,viscosity,"303.15 K, x1 = 0.6157",1.023 ± 0.025 mPa·s
same,mass density,"303.15 K, x1 = 0.7086",774.55 ± 0.48 kg/m3
same,speed of sound,"303.15 K, x1 = 0.7086",1204 ± 2 m/s
same,viscosity,"303.15 K, x1 = 0.7086",0.928 ± 0.023 mPa·s
same,mass density,"303.15 K, x1 = 0.8022",772.21 ± 0.49 kg/m3
same,speed of sound,"303.15 K, x1 = 0.8022",1208 ± 2 m/s
same,viscosity,"303.15 K, x1 = 0.8022",0.874 ± 0.022 mPa·s
same,mass density,"303.15 K, x1 = 0.9029",770.14 ± 0.49 kg/m3
same,speed of sound,"303.15 K, x1 = 0.9029",1215 ± 2 m/s
same,viscosity,"303.15 K, x1 = 0.9029",0.829 ± 0.021 mPa·s
same,mass density,"303.15 K, x1 = 0.9519",769.37 ± 0.49 kg/m3
same,speed of sound,"303.15 K, x1 = 0.9519",1220 ± 2 m/s
same,viscosity,"303.15 K, x1 = 0.9519",0.817 ± 0.021 mPa·s
same,mass density,"303.15 K, x1 = 1",769.19 ± 0.49 kg/m3
same,speed of sound,"303.15 K, x1 = 1",1230 ± 2 m/s
same,viscosity,"303.15 K, x1 = 1",0.816 ± 0.021 mPa·s
